Data: PMC8406298, “Discovery of Fungus-Specific Targets and Inhibitors Using Chemical Phenotyping of Pathogenic Spore Germination” (mBio, 2021)

What was measured:
[1] = system: Cryptococcus yeast (CHY3833 and CHY3836); assay: Yeast replication secondary screen (OD600); type: cell-based, Cryptococcus neoformans serotype D (deneoformans); conditions: 10 μM, 12 h at 30°C
Description: (ii) Yeast replication. CHY3833 and CHY3836 were each grown in YPD liquid overnight at 30°C to saturation and then resuspended in 0.5× YPD at an OD600 of 0.005. Strains were aliquoted into 384-well plates with inhibitors and grown for 12 h at 30°C at […] before OD600 readings were taken. Compounds that caused a >10% decrease in growth were considered yeast growth inhibitors.

[2] = system: normal human dermal fibroblasts (NHDF) cells; assay: Fibroblast cytotoxicity (CellTiter-Glo); type: cell-based; conditions: 10 µM
Description: PrimaPure normal human dermal fibroblasts (NHDF) cells (Genlatis PH10605A) were cultured and passaged in fibroblast growth medium (Genlatis PM116500) according to the manufacturer’s protocol. NHDF cells (1 × 10^3 per well) were plated in a 384-well plate in cell culture medium. The cells were incubated with each compound of interest at 10 μM concentration for 72 h at 37°C and 5% CO2. Following treatment, CellTiter-Glo (Promega) reagent was used to assay ATP-dependent luminescence and thus provide a measure of cell viability. […] For cytotoxicity dose-response curves (Fig. 4C and Fig. 5C), compounds were titrated from 80 μM to 0.5 μM in duplicates.

SMILES: O=c1[nH]sc2ccccc12 [compound 17520]
- Yeast Inhibition: % Inhibition [1]: 101.5%
- Cytotoxicity: Relative Cell Viability (% of Negative Control) [2]: 3.3 % of Negative Control

SMILES: Oc1ccc2cc(Br)ccc2c1 [compound 27144]
- Yeast Inhibition: % Inhibition [1]: 100.0%
- Cytotoxicity: Relative Cell Viability (% of Negative Control) [2]: 31.7 % of Negative Control

SMILES: Oc1ccc(-c2ccccc2)cc1Br [compound 27297]
- Yeast Inhibition: % Inhibition [1]: 101.8%
- Cytotoxicity: Relative Cell Viability (% of Negative Control) [2]: 4.7 % of Negative Control

SMILES: Cc1n[nH]c(C)c1Br [compound 76937]
- Yeast Inhibition: % Inhibition [1]: 22.1%
- Cytotoxicity: Relative Cell Viability (% of Negative Control) [2]: 59.9 % of Negative Control

SMILES: N#CSC1C=CS(=O)(=O)C1 (centres unmarked) [compound 99741]
- Yeast Inhibition: % Inhibition [1]: 49.2%
- Cytotoxicity: Relative Cell Viability (% of Negative Control) [2]: 40.8 % of Negative Control

SMILES: COc1ccc(C2=CC(=O)C=CC2=O)cc1 [compound 121637]
- Yeast Inhibition: % Inhibition [1]: 100.9%
- Cytotoxicity: Relative Cell Viability (% of Negative Control) [2]: 3.0 % of Negative Control

SMILES: Cc1ccc(Nc2cc(Cl)nc(N)n2)cc1Cl [compound 243059]
- Yeast Inhibition: % Inhibition [1]: 98.9%
- Cytotoxicity: Relative Cell Viability (% of Negative Control) [2]: 46.1 % of Negative Control

SMILES: COc1ccc(CCN2C(=O)C=CC2=O)cc1OC [compound 282938]
- Yeast Inhibition: % Inhibition [1]: 101.4%
- Cytotoxicity: Relative Cell Viability (% of Negative Control) [2]: 24.9 % of Negative Control

SMILES: N#Cc1nc2c(nc1C#N)-c1ccccc1C2=O [compound 292929]
- Yeast Inhibition: % Inhibition [1]: 100.6%
- Cytotoxicity: Relative Cell Viability (% of Negative Control) [2]: 5.9 % of Negative Control

SMILES: Cc1ccc(CN2C(=O)C=CC2=O)cc1 [compound 302279]
- Yeast Inhibition: % Inhibition [1]: 101.5%
- Cytotoxicity: Relative Cell Viability (% of Negative Control) [2]: 3.1 % of Negative Control

SMILES: O=S(=O)(Nc1cccc2ccccc12)c1ccc(Cl)cc1 [compound 310131]
- Yeast Inhibition: % Inhibition [1]: 59.8%
- Cytotoxicity: Relative Cell Viability (% of Negative Control) [2]: 67.0 % of Negative Control

SMILES: CCOC(=O)c1ccc(NC(=O)CCc2ccc(CC)o2)cc1 [compound 652808]
- Yeast Inhibition: % Inhibition [1]: 28.0%
- Cytotoxicity: Relative Cell Viability (% of Negative Control) [2]: 113.1 % of Negative Control

SMILES: CC(C)(C)c1ccc(-c2csc(N)n2)cc1 [compound 673711]
- Yeast Inhibition: % Inhibition [1]: 94.3%
- Cytotoxicity: Relative Cell Viability (% of Negative Control) [2]: 86.3 % of Negative Control

SMILES: Cc1ccc2occ(C=O)c(=O)c2c1 [compound 688709]
- Yeast Inhibition: % Inhibition [1]: 100.0%
- Cytotoxicity: Relative Cell Viability (% of Negative Control) [2]: 91.6 % of Negative Control

SMILES: CC(C)Cc1nnc(NC(=O)C(Cl)Cl)s1 [compound 697528]
- Yeast Inhibition: % Inhibition [1]: 71.6%
- Cytotoxicity: Relative Cell Viability (% of Negative Control) [2]: 96.1 % of Negative Control

SMILES: Oc1ccccc1-c1cc2ccccc2[nH]1 [compound 700009]
- Yeast Inhibition: % Inhibition [1]: 82.2%
- Cytotoxicity: Relative Cell Viability (% of Negative Control) [2]: 96.3 % of Negative Control

SMILES: Cc1ccc(C)c(S(=O)(=O)n2cnc3ccccc32)c1 [compound 700148]
- Yeast Inhibition: % Inhibition [1]: 59.4%
- Cytotoxicity: Relative Cell Viability (% of Negative Control) [2]: 84.1 % of Negative Control

SMILES: O=C(NC(=S)NCc1ccccc1)c1ccccc1 [compound 700976]
- Yeast Inhibition: % Inhibition [1]: 78.1%
- Cytotoxicity: Relative Cell Viability (% of Negative Control) [2]: 97.5 % of Negative Control

SMILES: O=C(Nc1nc2c(s1)CCc1ccccc1-2)c1ccco1 [compound 701070]
- Yeast Inhibition: % Inhibition [1]: 1.7%
- Cytotoxicity: Relative Cell Viability (% of Negative Control) [2]: 92.9 % of Negative Control

SMILES: NC(=O)/C=C/C(=O)Nc1cccc(C(F)(F)F)c1 [compound 707936]
- Yeast Inhibition: % Inhibition [1]: 101.2%
- Cytotoxicity: Relative Cell Viability (% of Negative Control) [2]: 3.5 % of Negative Control

SMILES: Cc1ccc(C)c(N2C(=O)C=CC2=O)c1 [compound 709153]
- Yeast Inhibition: % Inhibition [1]: 101.9%
- Cytotoxicity: Relative Cell Viability (% of Negative Control) [2]: 3.3 % of Negative Control

SMILES: CC1CCN(C(=O)COc2ccc(-c3ccccc3)cc2)CC1 [compound 717711]
- Yeast Inhibition: % Inhibition [1]: 28.9%
- Cytotoxicity: Relative Cell Viability (% of Negative Control) [2]: 90.0 % of Negative Control

SMILES: CN(C)c1ccc(NC(=O)/C=C/c2ccccc2Cl)cc1 [compound 723732]
- Yeast Inhibition: % Inhibition [1]: 27.8%
- Cytotoxicity: Relative Cell Viability (% of Negative Control) [2]: 79.8 % of Negative Control

SMILES: CC(C)=CC(=O)Nc1ccc(OCc2ccccc2)cc1 [compound 731806]
- Yeast Inhibition: % Inhibition [1]: 64.0%
- Cytotoxicity: Relative Cell Viability (% of Negative Control) [2]: 91.1 % of Negative Control

SMILES: Cc1nc(NC(=O)CCc2ccccc2)sc1C [compound 733834]
- Yeast Inhibition: % Inhibition [1]: 89.7%
- Cytotoxicity: Relative Cell Viability (% of Negative Control) [2]: 96.8 % of Negative Control

SMILES: Cc1ccccc1OCCn1cnc2ccccc21 [compound 749608]
- Yeast Inhibition: % Inhibition [1]: 75.5%
- Cytotoxicity: Relative Cell Viability (% of Negative Control) [2]: 96.0 % of Negative Control

SMILES: COc1ccc(Cc2nc3ccccc3[nH]2)cc1 [compound 763894]
- Yeast Inhibition: % Inhibition [1]: 23.2%
- Cytotoxicity: Relative Cell Viability (% of Negative Control) [2]: 98.0 % of Negative Control

SMILES: COc1ccccc1NS(=O)(=O)c1cc(Cl)ccc1Cl [compound 766532]
- Yeast Inhibition: % Inhibition [1]: 96.0%
- Cytotoxicity: Relative Cell Viability (% of Negative Control) [2]: 56.4 % of Negative Control

SMILES: Oc1ccc(C2(c3cccc(Cl)c3)CCCC2)cc1 [compound 767639]
- Yeast Inhibition: % Inhibition [1]: 74.0%
- Cytotoxicity: Relative Cell Viability (% of Negative Control) [2]: 96.2 % of Negative Control

SMILES: O=C(/C=C/c1ccco1)N1CCCc2ccccc21 [compound 768672]
- Yeast Inhibition: % Inhibition [1]: 37.4%
- Cytotoxicity: Relative Cell Viability (% of Negative Control) [2]: 109.0 % of Negative Control

SMILES: CCc1ccc2nc(N)sc2c1 [compound 773093]
- Yeast Inhibition: % Inhibition [1]: 73.1%
- Cytotoxicity: Relative Cell Viability (% of Negative Control) [2]: 62.5 % of Negative Control

SMILES: Nc1nc(-c2ccc(Oc3ccccc3)cc2)cs1 [compound 780598]
- Yeast Inhibition: % Inhibition [1]: 81.0%
- Cytotoxicity: Relative Cell Viability (% of Negative Control) [2]: 97.5 % of Negative Control

SMILES: Cc1ccc(OCCn2c(C)nc3ccccc32)cc1 [compound 790960]
- Yeast Inhibition: % Inhibition [1]: 81.4%
- Cytotoxicity: Relative Cell Viability (% of Negative Control) [2]: 90.6 % of Negative Control

SMILES: C[n+]1sc(Nc2ccccc2)nc1-c1ccccc1 [compound 803194]
- Yeast Inhibition: % Inhibition [1]: 98.4%
- Cytotoxicity: Relative Cell Viability (% of Negative Control) [2]: 16.5 % of Negative Control

SMILES: O=Cc1sc(=O)n(Cc2ccccc2)c1Cl [compound 820752]
- Yeast Inhibition: % Inhibition [1]: 101.8%
- Cytotoxicity: Relative Cell Viability (% of Negative Control) [2]: 115.4 % of Negative Control

SMILES: O=C(Nc1ccc2[nH]c3c(c2c1)CCCC3)c1ccco1 [compound 852322]
- Yeast Inhibition: % Inhibition [1]: 65.7%
- Cytotoxicity: Relative Cell Viability (% of Negative Control) [2]: 77.3 % of Negative Control

SMILES: COC(=O)c1c(N)sc(C)c1-c1ccc(F)cc1 [compound 874714]
- Yeast Inhibition: % Inhibition [1]: 87.6%
- Cytotoxicity: Relative Cell Viability (% of Negative Control) [2]: 75.9 % of Negative Control

SMILES: Cc1ccc(C)c(CSc2nc3ccccc3[nH]2)c1 [compound 899259]
- Yeast Inhibition: % Inhibition [1]: 45.3%
- Cytotoxicity: Relative Cell Viability (% of Negative Control) [2]: 84.5 % of Negative Control

SMILES: c1ccc(CNc2ncnc3scc(-c4cccs4)c23)nc1 [compound 944383]
- Yeast Inhibition: % Inhibition [1]: 53.4%
- Cytotoxicity: Relative Cell Viability (% of Negative Control) [2]: 92.9 % of Negative Control

SMILES: Clc1ccc2nc(SCCc3ccccc3)[nH]c2c1 [compound 955598]
- Yeast Inhibition: % Inhibition [1]: 98.2%
- Cytotoxicity: Relative Cell Viability (% of Negative Control) [2]: 34.2 % of Negative Control

SMILES: Cc1cccc2nc(CSC(=S)NCc3cccnc3)cn12 [compound 957599]
- Yeast Inhibition: % Inhibition [1]: 59.9%
- Cytotoxicity: Relative Cell Viability (% of Negative Control) [2]: 10.0 % of Negative Control

SMILES: C=C(C)Cn1c(Cc2ccc(OC)cc2)nc2ccccc21 [compound 962333]
- Yeast Inhibition: % Inhibition [1]: 53.4%
- Cytotoxicity: Relative Cell Viability (% of Negative Control) [2]: 73.9 % of Negative Control

SMILES: Nc1nc(COc2ccc3ccccc3c2)cs1 [compound 973573]
- Yeast Inhibition: % Inhibition [1]: 75.7%
- Cytotoxicity: Relative Cell Viability (% of Negative Control) [2]: 108.1 % of Negative Control

SMILES: O=S(=O)(Nc1ccc(Br)cc1F)c1cccc(Cl)c1 [compound 983861]
- Yeast Inhibition: % Inhibition [1]: 55.6%
- Cytotoxicity: Relative Cell Viability (% of Negative Control) [2]: 101.6 % of Negative Control

SMILES: Nc1nc(-c2ccccn2)cs1 [compound 1092459]
- Yeast Inhibition: % Inhibition [1]: 100.0%

SMILES: CCOC(=O)c1c(-c2ccc(C)o2)csc1NC(=O)c1ccc2c(c1)OCCO2 [compound 1186249]
- Yeast Inhibition: % Inhibition [1]: 44.6%
- Cytotoxicity: Relative Cell Viability (% of Negative Control) [2]: 75.3 % of Negative Control

SMILES: COC(=O)c1sc(S(=O)(=O)Nc2cccc(C(F)(F)F)c2)c(C(=O)OC)c1C [compound 1190482]
- Yeast Inhibition: % Inhibition [1]: 2.5%
- Cytotoxicity: Relative Cell Viability (% of Negative Control) [2]: 90.9 % of Negative Control

SMILES: O=C1NC(=S)S/C1=C\c1ccccc1F [compound 1204290]
- Yeast Inhibition: % Inhibition [1]: 71.4%
- Cytotoxicity: Relative Cell Viability (% of Negative Control) [2]: 92.9 % of Negative Control

SMILES: Cn1c(=O)c(Nc2ccc(O)cc2)c2c3c(cccc31)C(=O)c1ccccc1-2 [compound 1263311]
- Yeast Inhibition: % Inhibition [1]: -2.6%
- Cytotoxicity: Relative Cell Viability (% of Negative Control) [2]: 86.6 % of Negative Control

SMILES: O=S(=O)(Nc1ccc(Br)cc1F)c1ccc(Cl)c(C(F)(F)F)c1 [compound 1307471]
- Yeast Inhibition: % Inhibition [1]: 59.9%
- Cytotoxicity: Relative Cell Viability (% of Negative Control) [2]: 98.7 % of Negative Control

SMILES: O=C(NN1C(=O)/C(=C\c2ccco2)SC1=S)c1ccc(OC(F)F)cc1 [compound 1391595]
- Yeast Inhibition: % Inhibition [1]: 65.6%
- Cytotoxicity: Relative Cell Viability (% of Negative Control) [2]: 93.6 % of Negative Control
